The text below walks through data of US20250163066A1, “PROTACs of MALT1” (TEGID THERAPEUTICS, INC., priority 2022, published 2025).

The target in this assay is MALT1 (Homo sapiens (Human), UniProt Q9UDY8). As to the kind of experiment: MALT1 enzymatic activity inhibition (fluorescence, Ac-LRSR-AMC substrate). Format: biochemical. The conditions noted are these: recombinant MALT1 1.5 ng/μl, Ac-LRSR-AMC 1 μM. The method, then: Compound activity was determined using recombinant MALT1 protein (Creative Biomart, Cat #MALT1-28H) and Ac-LRSR-AMC Substrate in an in vitro enzymatic reaction. The enzymatic assay used to determine activity was a Fluorescence assay using a Microplate Reader ClarioStar Plus. The enzymatic reaction was carried out in 1× Assay Buffer (50 mM HEPES pH 7.2-7.4, 100 mM NaCl, 900 mM Sodium citrate, 10 mM DTT). The compounds were dispensed on a 384-well Diamond Well Plate (Axygen, Cat #P-384-120SQ-C—S) using the Biomek FX liquid handling system at 100× solutions of compounds in DMSO. 2.5×MALT1 mix (final concentration 1.5 ng/μl of MALT1) was prepared in 1× Assay Buffer and 8 μl of mixture per well were added into 384w white Reaction Plates with NBS (Corning, Cat #4513). 8 μl of 1× Assay Buffer were used for negative control. Plates were centrifuged for 1 min at 200 g. Next, the compounds were added to Reaction plates using Biomek station via following steps: 1 μl of 100× compounds (in DMSO) was mixed thoroughly with 19 μl of 1× Assay Buffer, then 4 μl of this mixture were added to Reaction plates with 8 μl of MALT1 mix. Plates were centrifuged for 1 min at 200 g and incubated for 10 minutes at rt. Next, 2.5× Ac-LRSR-AMC mix (final concentration 1 μM of Ac-LRSR-AMC) was prepared in 1× Assay Buffer and 8 μl of mixture per well were added to Reaction Plates using Biomek station. Plates were centrifuged for 1 min at 200 g, then the fluorescence was measured immediately using Microplate Reader. Plates were incubated for 30 minutes at 37° C., then for 30 minutes at rt. The fluorescence was measured after the whole incubation using Microplate Reader. The reaction signal was calculated as the subtraction of the first data set values from the second. The % inhibition was then used to calculate the IC50 values. The results of this assay are shown in the Table A. The values of EC50 shown as a letters A-E, where: A≤0.2 μM; 0.2 μM<B≤0.5 μM; 0.5 μM<C≤1 μM; 1<D≤5 μM; E >5.
Chain of MALT1 (Q9UDY8 whole entry): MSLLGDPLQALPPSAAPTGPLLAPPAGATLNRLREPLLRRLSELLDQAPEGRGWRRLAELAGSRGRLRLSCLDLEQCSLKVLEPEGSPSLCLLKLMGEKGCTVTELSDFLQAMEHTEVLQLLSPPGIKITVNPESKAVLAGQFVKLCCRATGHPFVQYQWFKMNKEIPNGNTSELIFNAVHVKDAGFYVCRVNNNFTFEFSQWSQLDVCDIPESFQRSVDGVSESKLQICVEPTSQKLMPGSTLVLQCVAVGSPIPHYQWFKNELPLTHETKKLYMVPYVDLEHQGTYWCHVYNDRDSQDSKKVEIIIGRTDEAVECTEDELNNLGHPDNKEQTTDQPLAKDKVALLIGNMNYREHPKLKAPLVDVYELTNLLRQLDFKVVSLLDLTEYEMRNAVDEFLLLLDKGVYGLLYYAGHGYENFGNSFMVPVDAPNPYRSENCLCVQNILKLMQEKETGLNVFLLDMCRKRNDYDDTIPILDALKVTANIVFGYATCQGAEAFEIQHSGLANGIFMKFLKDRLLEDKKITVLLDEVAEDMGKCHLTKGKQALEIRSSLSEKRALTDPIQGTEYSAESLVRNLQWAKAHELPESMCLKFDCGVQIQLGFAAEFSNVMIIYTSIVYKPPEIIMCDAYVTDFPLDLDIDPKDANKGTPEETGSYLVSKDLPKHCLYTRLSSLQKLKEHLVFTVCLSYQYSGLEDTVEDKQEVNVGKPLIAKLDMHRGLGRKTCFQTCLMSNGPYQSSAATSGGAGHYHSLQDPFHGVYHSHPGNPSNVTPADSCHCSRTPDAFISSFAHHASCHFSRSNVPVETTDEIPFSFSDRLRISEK
With `COc1cc(-c2c(NC(=O)Nc3cnc(-c4noc(CNC(=O)CCOCCN5CCN(c6ccc7c(c6)CN(C6CCC(=O)NC6=O)C7=O)CC5)n4)c(C)c3)cnc3ccnn23)cc(OC)c1OC` (centres unmarked) [Compound 1, 3-(2-{4-[2-(2,6-Dioxopiperidin-3-yl)-1-oxo-2,3-dihydro-1H-isoindol-5-yl]piperazin-1-yl}ethoxy)-N-[(3-{3-methyl-5-[({[7-(3,4,5-trimethoxyphenyl)pyrazolo[1,5-a]pyrimidin-6-yl]amino}carbonyl)amino]pyridin-2-yl}-1,2,4-oxadiazol-5-yl)methyl]propenamide], the EC50 was more than 5 µM.
The value for `Cc1cc(NC(=O)Nc2cnc3ccnn3c2C2CCCC2)cnc1-c1noc(CCCCCC(=O)N2CCN(c3ccc4c(c3)CN(C3CCC(=O)NC3=O)C4=O)CC2)n1` (centres unmarked) [Compound 4, 1-(7-cyclopentylpyrazolo[1,5-a]pyrimidin-6-yl)-3-[6-[5-[6-[4-[2-(2,6-dioxo-3-piperidyl)-1-oxo-isoindolin-5-yl]piperazin-1-yl]-6-oxo-hexyl]-1,2,4-oxadiazol-3-yl]-5-methyl-3-pyridyl]urea] was 0.2 to 0.5 µM; that for `Cc1cc(NC(=O)Nc2cnc3ccnn3c2C2CCCC2)cnc1-c1nnc(CCCCCC(=O)N2CCN(c3ccc4c(c3)CN(C3CCC(=O)NC3=O)C4=O)CC2)o1` (centres unmarked) [Compound 5, 1-(7-cyclopentylpyrazolo[1,5-a]pyrimidin-6-yl)-3-[6-[5-[6-[4-[2-(2,6-dioxo-3-piperidyl)-1-oxo-isoindolin-5-yl]piperazin-1-yl]-6-oxo-hexyl]-1,3,4-oxadiazol-2-yl]-5-methyl-3-pyridyl]urea] was not above 0.2 µM.
The value for `Cc1cc(NC(=O)Nc2cnc3ccnn3c2C2CCCC2)cnc1-c1cn(CCCCCCC(=O)N2CCN(c3ccc4c(c3)CN(C3CCC(=O)NC3=O)C4=O)CC2)nn1` (centres unmarked) [Compound 6, 1-(7-cyclopentylpyrazolo[1,5-a]pyrimidin-6-yl)-3-[6-[1-[7-[4-[2-(2,6-dioxo-3-piperidyl)-1-oxo-isoindolin-5-yl]piperazin-1-yl]-7-oxo-heptyl]triazol-4-yl]-5-methyl-3-pyridyl]urea] was 0.5 to 1 µM.
With `Cc1cc(NC(=O)Nc2cnc3ccnn3c2C2CCCC2)cnc1-c1cn(CCCCOCC(=O)N2CCN(c3ccc4c(c3)CN(C3CCC(=O)NC3=O)C4=O)CC2)nn1` (centres unmarked) [Compound 8, 1-(7-cyclopentylpyrazolo[1,5-a]pyrimidin-6-yl)-3-[6-[1-[4-[2-[4-[2-(2,6-dioxo-3-piperidyl)-1-oxo-isoindolin-5-yl]piperazin-1-yl]-2-oxo-ethoxy]butyl]triazol-4-yl]-5-methyl-3-pyridyl]urea], the EC50 was in the range of 1 to 5 µM.
The value for `Cc1cc(NC(=O)Nc2cnc3nccn3c2C2CCCC2)cnc1-c1noc(CCCCCC(=O)N2CCN(c3ccc4c(c3)CN(C3CCC(=O)NC3=O)C4=O)CC2)n1` (centres unmarked) [Compound 9, 1-(5-cyclopentylimidazo[1,2-a]pyrimidin-6-yl)-3-[6-[5-[6-[4-[2-(2,6-dioxo-3-piperidyl)-1-oxo-isoindolin-5-yl]piperazin-1-yl]-6-oxo-hexyl]-1,2,4-oxadiazol-3-yl]-5-methyl-3-pyridyl]urea] was more than 5 µM; that for `Cc1cc(NC(=O)Nc2cnc3ccnn3c2C2CCCC2)cnc1-c1noc(COCCCCN2CCN(c3ccc4c(c3)CN(C3CCC(=O)NC3=O)C4=O)CC2)n1` (centres unmarked) [Compound 11, 1-(7-cyclopentylpyrazolo[1,5-a]pyrimidin-6-yl)-3-[6-[5-[4-[4-[2-(2,6-dioxo-3-piperidyl)-1-oxo-isoindolin-5-yl]piperazin-1-yl]butoxymethyl]-1,2,4-oxadiazol-3-yl]-5-methyl-3-pyridyl]urea] was 0.2 to 0.5 µM; that for `Cc1cc(NC(=O)Nc2cnc3c(Cl)cnn3c2C2CCCC2)cnc1-c1noc(CCCN2CCN(c3ccc4c(c3)CN(C3CCC(=O)NC3=O)C4=O)CC2)n1` (centres unmarked) [Compound 19, 1-(3-chloro-7-cyclopentyl-pyrazolo[1,5-a]pyrimidin-6-yl)-3-[6-[5-[3-[4-[2-(2,6-dioxo-3-piperidyl)-1-oxo-isoindolin-5-yl]piperazin-1-yl]propyl]-1,2,4-oxadiazol-3-yl]-5-methyl-3-pyridyl]urea] was 1 to 5 µM.
`Cc1cc(NC(=O)Nc2cnc3c(Cl)cnn3c2C2CCCC2)cnc1-c1noc(CCCCN2CCN(c3ccc4c(c3)CN(C3CCC(=O)NC3=O)C4=O)CC2)n1` (centres unmarked) [Compound 20, 1-(3-chloro-7-cyclopentyl-pyrazolo[1,5-a]pyrimidin-6-yl)-3-[6-[5-[4-[4-[2-(2,6-dioxo-3-piperidyl)-1-oxo-isoindolin-5-yl]piperazin-1-yl]butyl]-1,2,4-oxadiazol-3-yl]-5-methyl-3-pyridyl]urea]: the concentration for a half-maximal effect (EC50) is 1 to 5 µM.
With `Cc1cc(NC(=O)Nc2cnc3ccnn3c2C2CCCC2)cnc1-c1noc(CCCCN2CCN(c3ccc4c(c3)CN(C3CCC(=O)NC3=O)C4=O)CC2)n1` (centres unmarked) [Compound 21, 1-(7-cyclopentylpyrazolo[1,5-a]pyrimidin-6-yl)-3-[6-[5-[4-[4-[2-(2,6-dioxo-3-piperidyl)-1-oxo-isoindolin-5-yl]piperazin-1-yl]butyl]-1,2,4-oxadiazol-3-yl]-5-methyl-3-pyridyl]urea] the figure was not above 0.2 µM; with `O=C1CCC(N2Cc3cc(N4CCN(CCCCc5nc(-c6ncc(NC(=O)Nc7cnc8c(Cl)cnn8c7C7CCCC7)cc6Cl)no5)CC4)ccc3C2=O)C(=O)N1` (centres unmarked) [Compound 22, N-(3-Chloro-7-cyclopentylpyrazolo[1,5-a]pyrimidin-6-yl)-N′-{5-chloro-6-[5-(4-{4-[2-(2,6-dioxopiperidin-3-yl)-1-oxo-2,3-dihydro-1H-isoindol-5-yl]piperazin-1-yl}butyl)-1,2,4-oxadiazol-3-yl]pyridin-3-yl}urea], 1 to 5 µM.
The value for `Cc1cc(NC(=O)Nc2cnc3c(Cl)cnn3c2C2CCCC2)cnc1-c1noc(CCCN2CCN(c3cc4c(cc3F)C(=O)N(C3CCC(=O)NC3=O)C4=O)CC2)n1` (centres unmarked) [Compound 24, 1-(3-chloro-7-cyclopentyl-pyrazolo[1,5-a]pyrimidin-6-yl)-3-[6-[5-[3-[4-[2-(2,6-dioxo-3-piperidyl)-6-fluoro-1,3-dioxo-isoindolin-5-yl]piperazin-1-yl]propyl]-1,2,4-oxadiazol-3-yl]-5-methyl-3-pyridyl]urea] was 1 to 5 µM; that for `CO[C@@H](C)c1c(NC(=O)Nc2cc(Cl)cnc2OCCNC(=O)CCOCCN2CCN(c3ccc4c(c3)CN(C3CCC(=O)NC3=O)C4=O)CC2)cnc2ccnn12` (stereo partly drawn) [Compound 25, N-[2-[[5-chloro-3-[[7-[(1S)-1-methoxyethyl]pyrazolo[1,5-a]pyrimidin-6-yl]carbamoylamino]-2-pyridyl]oxy]ethyl]-3-[2-[4-[2-(2,6-dioxo-3-piperidyl)-1-oxo-isoindolin-5-yl]piperazin-1-yl]ethoxy]propanamide] was 0.2 to 0.5 µM; that for `COc1cc(-c2c(NC(=O)Nc3cnc(N4CCN(C(=O)COCC(=O)Nc5cccc6c5C(=O)N(C5CCC(=O)NC5=O)C6=O)CC4)c(C)c3)cnc3ccnn23)cc(OC)c1OC` (centres unmarked) [Compound 26, N-[2-(2,6-dioxo-3-piperidyl)-1,3-dioxo-isoindolin-4-yl]-2-[2-[4-[3-methyl-5-[[7-(3,4,5-trimethoxyphenyl)pyrazolo[1,5-a]pyrimidin-6-yl]carbamoylamino]-2-pyridyl]piperazin-1-yl]-2-oxo-ethoxy]acetamide] was more than 5 µM.
The value for `COc1cc(-c2c(NC(=O)Nc3cnc(NCCOCCOCCC(=O)N4CCN(c5ccc6c(c5)CN(C5CCC(=O)NC5=O)C6=O)CC4)c(C)c3)cnc3ccnn23)cc(OC)c1OC` (centres unmarked) [Compound 27, 1-[6-[2-[2-[3-[4-[2-(2,6-dioxo-3-piperidyl)-1-oxo-isoindolin-5-yl]piperazin-1-yl]-3-oxo-propoxy]ethoxy]ethylamino]-5-methyl-3-pyridyl]-3-[7-(3,4,5-trimethoxyphenyl)pyrazolo[1,5-a]pyrimidin-6-yl]urea] was more than 5 µM; that for `COc1cc(-c2c(NC(=O)Nc3cnc(-n4cc(C(=O)NCCOCCOCCC(=O)N5CCN(c6ccc7c(c6)CN(C6CCC(=O)NC6=O)C7=O)CC5)cn4)c(C)c3)cnc3ccnn23)cc(OC)c1OC` (centres unmarked) [Compound 28, N-[2-[2-[3-[4-[2-(2,6-dioxo-3-piperidyl)-1-oxo-isoindolin-5-yl]piperazin-1-yl]-3-oxo-propoxy]ethoxy]ethyl]-1-[3-methyl-5-[[7-(3,4,5-trimethoxyphenyl)pyrazolo[1,5-a]pyrimidin-6-yl]carbamoylamino]-2-pyridyl]pyrazole-4-carboxamide] was more than 5 µM.
With `Cc1cc(NC(=O)Nc2cnc3ccnn3c2C2CCCO2)cnc1NCCOCCOCCOCCC(=O)N1CCN(c2ccc3c(c2)CN(C2CCC(=O)NC2=O)C3=O)CC1` (centres unmarked) [Compound 29, 1-[6-[2-[2-[2-[3-[4-[2-(2,6-dioxo-3-piperidyl)-1-oxo-isoindolin-5-yl]piperazin-1-yl]-3-oxo-propoxy]ethoxy]ethoxy]ethylamino]-5-methyl-3-pyridyl]-3-(7-tetrahydrofuran-2-ylpyrazolo[1,5-a]pyrimidin-6-yl)urea], the concentration giving a half-maximal response (EC50) was more than 5 µM.
